In PMC12808126 (Scientific Reports, 2025):

Experiments:
Assay type in all cases: cell-based
Conditions in all cases: to LPS control
[1] = test system: IL-1β; assay: IL-1β suppression assay
[2] = test system: IL-6; assay: IL-6 suppression assay
[3] = test system: TNF-α; assay: TNF-α suppression assay

NS(=O)(=O)c1ccc(-n2nc(C(=O)NN3C(=O)CCC3=O)cc2-c2ccccc2)cc1 [AS-11, N-(2,5-dioxopyrrolidin-1-yl)−5-phenyl-1-(4-sulfamoylphenyl)−1H-pyrazole-3-carboxamide]
IL-1β release percentage inhibition [1]: 75%
IL-6 release percentage inhibition [2]: 61%
TNF-α release percentage inhibition [3]: 91%
